Assay [1] deals with s-CD95L release from 1A12 cells. Description: Metalloprotease-cleaved CD95L dosed by ELISA in supernatants of 1A12 cells. It is filed as cell-based. The conditions noted are these: 1A12 cells treated 24 hours, vs isotype (anti-myc 9E10 mAb) control. As to the method:
(§1) FIG. 2. Monoclonal antibodies targeting the Metalloprotease-Cleavage Sites of CD95L (MCSCs). […] Arrows represent putative cleavage site in CD95L sequence. […] Indicated peptides were injected in mice to generate monoclonal antibodies and three different hybridoma were selected regarding their ability to bind CD95L. […] B. Recombinant Ig-CD95L (100 ng) was pre-incubated for 15 min with indicated antibodies (100 pg/mL) and then treated for 1h with the indicated MMPs. The metalloprotease-cleaved fragment of Ig-CD95L (CD95L devoid of its released Ig domain of gp190) was monitored by immunoblotting. C. CD95L-expressing leukemic T cell 1A12 was incubated for 24 h with indicated antibodies ([…]) or the pan-MMP inhibitor GM6001 (10 μM) and the expression level of membrane-bound CD95L was assessed by flow cytometry. D. Supernatants were harvested from cells treated in C and the metalloprotease-cleaved CD95L was dosed by ELISA (Diaclone).

Assay [2] relates to CD95L-expressing leukemic T cell 1A12. Description: Expression level of membrane-bound CD95L on 1A12 cells by flow cytometry. The class given is cell-based. The conditions noted are these: 24 h, antibodies 10 pg/mL, GM6001 10 μM. As to the method: as §1
A general note: A flow cytometer gives signals particle by particle.

The structures appear in SMILES notation.

Regarding `CNC(=O)[C@H](Cc1c[nH]c2ccccc12)NC(=O)[C@@H](CC(=O)NO)CC(C)C` [GM6001, reference compound], in assay [1], the “Concentrations of s-CD95L in supernatant” value is recorded as “significantly reduced”. For the same compound, the “Expression level of membrane-bound CD95L” value in assay [2] is given as “augmentation of m-CD95L”.
